Results on one molecule are retold here after publication PMC10498452, “Targeted Protein Degradation: Advances, Challenges, and Prospects for Computational Methods” (Journal of Chemical Information and Modeling, 2023).

Assay [1] deals with T1, SMARCA2 (Homo sapiens, UniProt P51531).
T1 construct: luminescence-based reporter assays with endogeneous HiBiT-tagged proteins have been developed that yield degradation profiles; endogenous in cells
In words: HiBiT assay, degradation profiles. The assay is classed as cell-based. The settings on record: VHL-recruiting degrader. The source says: To monitor the intracellular degradation, luminescence-based reporter assays with endogeneous HiBiT-tagged proteins have been developed that yield degradation profiles, from which maximum degradation levels (Dmax) as well as the half-maximum degradation concentration (DC50) can be derived to estimate the potency of a degrader molecule,[48] which is instrumental in degrader design (see Section 4.2). As a matter of fact, variants of this technology are applied to characterize the different steps in TPD, such as target engagement, ternary complex formation, and target ubiquitination,[115] providing complementary kinetic information to the other experimental approaches discussed.
Figure 6 lists all of our designs in this study (Linkers 1–6) along with ACBI1, a previously optimized VHL-recruiting degrader of SMARCA2.[28] Informed by the random forest classifier, which was trained and validated on about 100 known compounds (model accuracy of 83%), the designs generally involve rigid linkers that contain (aromatic) ring structures with low molecular weight. […] By contrast, 34 designs that incorporated typical alkyl and PEG linkers spanning 4 to ∼20 atoms as well as known linker moieties, such as triazoles and phenyl rings (o, m, or p-substituted to provide different geometries), only produced two active degraders.
Figure 7 Experimental confirmation of degrader designs. […]
For orientation: With HiBiT, luminescence reflects the tagged protein that the partner subunit can reach.

Assay [2] deals with SMARCA2-VHL ternary complex (Homo sapiens, UniProt P40337+P51531). In words: AlphaLISA assay measuring ternary complex formation. Format: binding. The source says: Competitive-binding and proximity-based assays can also probe the degree of degrader–POI engagement or ternary complex formation (Table 1), thus allowing the determination of binding affinities and cooperativity. These techniques measure changes in the polarization of a fluorescently labeled target protein upon binding to a degrader, as in fluorescence polarization (FP),[85] or detect intensity changes, upon ternary complex formation, in the fluorescence or luminescence signal emitted from beads tagged to the POI or E3 ligase, as in time-resolved Förster resonance energy-transfer (TR-FRET)[86] or in the amplified luminescent proximity homogeneous assay (ALPHA).[87] In the proximity ligation assay (PLA), a technology that is gaining popularity in TPD research, the signal is even further amplified through antibody-attached oligonucleotide hybridization.[88] These methods have been used in TPD studies for the identification of selective degraders and for the high-throughput screening of degrader designs.[39]−[41],[89] In particular, ALPHA has a high dynamic range and signal-to-noise ratio and, when applied in a titration experiment (usually set up as an immunoassay called AlphaLISA), it yields relative populations of ternary complexes as a function of degrader concentration and is routinely employed as a tool in degrader design projects (see Section 4.2). […]
A general note: Bead proximity is the source of the signal in Alpha formats.

SMILES strings stand for the structures.

T1 sequence (P51531 whole entry): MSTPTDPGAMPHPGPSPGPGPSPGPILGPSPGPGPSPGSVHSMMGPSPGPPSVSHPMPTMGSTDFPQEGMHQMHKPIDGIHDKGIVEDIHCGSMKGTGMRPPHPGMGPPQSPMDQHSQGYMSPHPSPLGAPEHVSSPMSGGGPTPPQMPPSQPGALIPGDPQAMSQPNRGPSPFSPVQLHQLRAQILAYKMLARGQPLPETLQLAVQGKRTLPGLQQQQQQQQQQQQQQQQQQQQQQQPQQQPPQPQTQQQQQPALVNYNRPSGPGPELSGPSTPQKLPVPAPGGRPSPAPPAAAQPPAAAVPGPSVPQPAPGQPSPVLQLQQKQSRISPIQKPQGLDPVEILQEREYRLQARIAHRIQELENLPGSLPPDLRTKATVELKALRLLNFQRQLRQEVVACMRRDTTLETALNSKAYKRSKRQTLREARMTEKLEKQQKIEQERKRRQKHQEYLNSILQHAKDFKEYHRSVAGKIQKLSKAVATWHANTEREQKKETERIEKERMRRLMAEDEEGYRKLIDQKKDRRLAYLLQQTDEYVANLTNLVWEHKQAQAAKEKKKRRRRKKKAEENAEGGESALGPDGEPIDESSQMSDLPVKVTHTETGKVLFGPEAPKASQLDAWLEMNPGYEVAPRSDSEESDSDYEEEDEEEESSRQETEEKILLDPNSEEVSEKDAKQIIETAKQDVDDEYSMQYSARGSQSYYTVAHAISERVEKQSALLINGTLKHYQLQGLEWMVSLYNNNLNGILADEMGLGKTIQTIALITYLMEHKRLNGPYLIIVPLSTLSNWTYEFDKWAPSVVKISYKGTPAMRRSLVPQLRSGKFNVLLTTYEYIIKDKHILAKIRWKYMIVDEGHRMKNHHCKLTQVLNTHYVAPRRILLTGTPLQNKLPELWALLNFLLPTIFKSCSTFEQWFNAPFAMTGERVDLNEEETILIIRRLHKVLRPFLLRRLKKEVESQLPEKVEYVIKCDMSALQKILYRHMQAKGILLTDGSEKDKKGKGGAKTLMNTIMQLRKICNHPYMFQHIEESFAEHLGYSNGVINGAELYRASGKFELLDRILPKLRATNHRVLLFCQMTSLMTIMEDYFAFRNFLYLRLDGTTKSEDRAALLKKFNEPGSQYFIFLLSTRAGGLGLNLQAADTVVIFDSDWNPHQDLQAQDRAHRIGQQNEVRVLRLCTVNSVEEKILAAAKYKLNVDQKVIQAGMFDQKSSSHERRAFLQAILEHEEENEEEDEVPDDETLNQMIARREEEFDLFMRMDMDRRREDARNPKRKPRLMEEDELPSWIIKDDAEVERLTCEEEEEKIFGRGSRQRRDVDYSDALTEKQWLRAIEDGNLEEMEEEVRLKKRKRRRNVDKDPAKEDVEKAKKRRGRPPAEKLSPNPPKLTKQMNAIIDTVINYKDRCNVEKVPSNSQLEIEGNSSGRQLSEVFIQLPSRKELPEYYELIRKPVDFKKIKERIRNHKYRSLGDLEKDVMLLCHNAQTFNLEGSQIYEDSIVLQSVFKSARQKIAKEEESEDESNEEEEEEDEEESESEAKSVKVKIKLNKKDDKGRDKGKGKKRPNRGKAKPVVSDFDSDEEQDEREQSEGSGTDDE
Sequence of SMARCA2-VHL ternary complex (P51531 1373-1511 limits assumed): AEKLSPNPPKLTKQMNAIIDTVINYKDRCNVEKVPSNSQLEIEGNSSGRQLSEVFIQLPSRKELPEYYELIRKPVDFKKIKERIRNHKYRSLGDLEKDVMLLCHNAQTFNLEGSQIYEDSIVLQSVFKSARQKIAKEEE
Sequence of SMARCA2-VHL ternary complex (P40337 54-213 limits assumed): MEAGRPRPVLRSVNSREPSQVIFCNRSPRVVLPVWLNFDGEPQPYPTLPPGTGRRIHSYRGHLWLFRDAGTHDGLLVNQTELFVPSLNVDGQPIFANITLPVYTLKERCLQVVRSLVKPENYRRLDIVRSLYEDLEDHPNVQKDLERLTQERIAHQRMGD
Sequence of SMARCA2-VHL ternary complex (Q15369 17-112 partner limits assumed): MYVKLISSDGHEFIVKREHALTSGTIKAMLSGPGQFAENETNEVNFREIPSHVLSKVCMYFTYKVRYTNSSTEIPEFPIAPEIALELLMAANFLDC
Sequence of SMARCA2-VHL ternary complex (Q15370 1-104 partner limits assumed): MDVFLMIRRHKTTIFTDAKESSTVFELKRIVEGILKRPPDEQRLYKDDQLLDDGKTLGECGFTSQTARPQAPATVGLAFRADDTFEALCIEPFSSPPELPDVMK

In the case of `Cc1ncsc1-c1ccc(CNC(=O)[C@@H]2C[C@@H](O)CN2C(=O)[C@@H](NC(=O)C2(F)CC2)C(C)(C)C)c(OCCOc2ccc(CN3CCN(c4cc(-c5ccccc5O)nnc4N)CC3)cc2)c1` [ACBI1], in assay [1], the DC50 (as a rule, the concentration giving 50% degradation) amounted to 37 nM and the maximal degradation (Dmax) (in general, the greatest extent of degradation seen) stood at 94%. Besides, the “AlphaLISA (% of control)” value in assay [2] is on record as 100 % of control.
